The record followed here is PubChem BioAssay (NCI).

Test systems include A549 NSCLC; COLO 205 colon; EKVX NSCLC; HS 578T breast; MDA-MB-231 breast; MDA-MB-435; NCI-H226 lung; OVCAR-3 ovarian; SF-268 CNS; SK-MEL-28 melanoma.
Common to all, as to test: NCI tumour cell line growth inhibition, 48 h

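Cells were grown in 96-well plates and exposed to each compound for 48 hours at five concentrations; endpoints were interpolated linearly between bracketing concentrations, or set to the highest concentration if not reached. GI50 marks 50% less growth. Definition used: TGI = concentration required for complete inhibition of growth.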

As for `C=C1C(=O)O[C@H]2[C@H]1CC/C(CNC(=O)/C=C/c1ccccc1F)=C\CC[C@@]1(C)O[C@@H]21`, the GI50 in the experiment with A549 NSCLC is 7 µM; in the experiment with COLO 205 colon, 1.4 µM; with EKVX NSCLC it was 1.89 µM; with HS 578T breast, 2.42 µM; in the experiment on MDA-MB-231 breast, 1.93 µM; in the experiment with MDA-MB-435, 1.5 µM. For the same compound, the GI50 was 2.42 µM in the experiment with NCI-H226 lung, 0.691 µM in the experiment on OVCAR-3 ovarian, 2.83 µM with SF-268 CNS and 1.95 µM in the experiment on SK-MEL-28 melanoma. In addition, the TGI with A549 NSCLC worked out at 24.5 µM; with COLO 205 colon it was 2.96 µM; in the experiment with EKVX NSCLC it was 5.95 µM; in the experiment on HS 578T breast it was 16.9 µM; in the experiment on MDA-MB-231 breast, 4.44 µM; in the experiment with MDA-MB-435, 6.34 µM. In addition, the TGI is 6.94 µM in the experiment with NCI-H226 lung, 2.1 µM with OVCAR-3 ovarian, 9.8 µM with SF-268 CNS and 6.19 µM in the experiment with SK-MEL-28 melanoma.
`C/C=C(\C)C(=O)O[C@H]1C=CC(=O)O[C@H]1COC(=O)[C@H](C)O`: the GI50 in the experiment on A549 NSCLC was 15.5 µM; with COLO 205 colon, 3.07 µM; in the experiment with EKVX NSCLC, 14.5 µM; in the experiment with HS 578T breast, 7.37 µM; in the experiment on MDA-MB-231 breast it was 12.1 µM; in the experiment on MDA-MB-435, 5.74 µM. In addition, the GI50 in the experiment with NCI-H226 lung is 12.4 µM; in the experiment with OVCAR-3 ovarian, 3.44 µM; in the experiment on SF-268 CNS it was 4.32 µM; in the experiment on SK-MEL-28 melanoma, 3.53 µM. The TGI with A549 NSCLC amounted to 35.3 µM; in the experiment with COLO 205 colon it was 15.5 µM; with EKVX NSCLC, 28.9 µM; in the experiment with HS 578T breast, 26 µM; in the experiment with MDA-MB-231 breast, 28.3 µM; with MDA-MB-435, 22.4 µM. For the same compound, the TGI was found to be 31.5 µM in the experiment with NCI-H226 lung, 14 µM in the experiment on OVCAR-3 ovarian, 17.6 µM with SF-268 CNS and 11.5 µM in the experiment with SK-MEL-28 melanoma.
As for `[Cu+2].[NH-]C(CC(=O)O)C(=O)O.[NH-]C(CC(=O)O)C(=O)O` (stereo not given), the GI50 in the experiment on A549 NSCLC was 52.1 µM; with COLO 205 colon it was greater than 100 µM; in the experiment on EKVX NSCLC it was greater than 100 µM; in the experiment on HS 578T breast, greater than 100 µM; with MDA-MB-231 breast, greater than 100 µM; with MDA-MB-435, 40.2 µM. Moreover, the GI50 in the experiment with NCI-H226 lung, in the experiment with OVCAR-3 ovarian, in the experiment on SF-268 CNS and in the experiment on SK-MEL-28 melanoma was greater than 100 µM throughout. The TGI in the experiment on A549 NSCLC, with COLO 205 colon, in the experiment with EKVX NSCLC, with HS 578T breast, in the experiment on MDA-MB-231 breast and with MDA-MB-435 was greater than 100 µM each time. Further, the TGI in the experiment on NCI-H226 lung, in the experiment with OVCAR-3 ovarian, in the experiment on SF-268 CNS and in the experiment with SK-MEL-28 melanoma was greater than 100 µM throughout.
On to `O=[N+]([O-])c1oc2ccc3ccccc3c2c1CCO`, for which the TGI turned out to be 7.29 µM in the experiment on A549 NSCLC; 1.46 µM in the experiment on COLO 205 colon; 2.09 µM in the experiment with EKVX NSCLC; 27.7 µM with HS 578T breast; 59.3 µM in the experiment with MDA-MB-231 breast; 3.16 µM in the experiment on MDA-MB-435. Further, the TGI stood at 30.1 µM with NCI-H226 lung, 58.5 µM in the experiment on OVCAR-3 ovarian, 40.5 µM in the experiment on SF-268 CNS and 3.27 µM with SK-MEL-28 melanoma.
In the case of `C=C1C(=O)C2=CC1CCC(=O)C1(C)CCC(OC(C)=O)C(C)(C)C1CC2O` (stereo not given), the TGI was 22.4 µM in the experiment with A549 NSCLC; 2.47 µM with COLO 205 colon; 18.9 µM with EKVX NSCLC; 20.4 µM in the experiment with HS 578T breast; 18 µM in the experiment on MDA-MB-231 breast; 26 µM in the experiment on MDA-MB-435. For the same compound, the TGI in the experiment with NCI-H226 lung is 31.9 µM; in the experiment on OVCAR-3 ovarian, 15.8 µM; with SF-268 CNS, 38.7 µM; with SK-MEL-28 melanoma it was greater than 46.4 µM.
With `O=S(=O)(NCCCNc1cc(-c2cn(-c3ccccc3)nc2-c2cccc(O)c2)ccn1)c1ccc(Br)cc1`, the GI50 is 2.6 µM with A549 NSCLC; 1.65 µM with COLO 205 colon; 2.29 µM with EKVX NSCLC; 1.16 µM with HS 578T breast; 1.6 µM in the experiment on MDA-MB-231 breast; 1.7 µM in the experiment on MDA-MB-435. The GI50 is 2.32 µM in the experiment with NCI-H226 lung, 1.66 µM in the experiment on OVCAR-3 ovarian, 1.45 µM in the experiment on SF-268 CNS and 1.97 µM in the experiment with SK-MEL-28 melanoma. In addition, the TGI with A549 NSCLC was found to be 12.6 µM; in the experiment on COLO 205 colon it was 3.4 µM; with EKVX NSCLC it was 66.4 µM; in the experiment with HS 578T breast it was 4.82 µM; in the experiment on MDA-MB-231 breast, 4.25 µM; in the experiment with MDA-MB-435, 3.53 µM. Further, the TGI worked out at 8.66 µM in the experiment with NCI-H226 lung, 3.61 µM in the experiment with OVCAR-3 ovarian, 4.98 µM with SF-268 CNS and 4.31 µM in the experiment with SK-MEL-28 melanoma.
For the compound `O=C(O)Cc1ccc(N=Nc2c(O)c(C(=O)O)cc3ccccc23)cc1`, the TGI in the experiment on A549 NSCLC, with COLO 205 colon, in the experiment on EKVX NSCLC, in the experiment with HS 578T breast, in the experiment on MDA-MB-231 breast and in the experiment with MDA-MB-435 was greater than 100 µM in each case. The TGI in the experiment on NCI-H226 lung, with OVCAR-3 ovarian, in the experiment with SF-268 CNS and in the experiment with SK-MEL-28 melanoma was greater than 100 µM each time.
